“Also recorded” adds a separate entry of the source.
What was measured:
[1] = biological target: Bacteroides ovatus GH5 endo-xyloglucanase (Bacteroides ovatus, UniProt A7LXT7); experiment: Hydrolysis of glyco-caged prodrugs by BoGH5A, copper-bicinchoninic acid (BCA) reducing-sugar assay; type: biochemical; settings: sodium citrate buffer, pH 6.5
Excerpt: DOI:10.1007/978-1-4939-6899-2 1.

[2] = test system: acute self-limiting colitis in mice; experiment: Histological scoring of inflammation, C. rodentium colitis in mice with normal enteric microbiota (Example 7); type: in vivo; settings: for histological score, distal colon: CR+/BO+ mice, prednisolone forms 1 mg/kg, dexamethasone forms 1.5 mg/kg (equivalent), one day following steroid treatment; for efficacy compared with the uncaged drug, histologically: Example 7 conclusions; for colitis in the colon, histopathologically: colitis incited by Citrobacter rodentium, mice colonized by Bacteroides ovatus
Experimental: (§1) Approval to conduct this project was obtained from the AAFC LeRDC Animal Care Committee (Animal Use Protocol 1911). […] The methods employed were essentially the same as those described in Example 3, except that the Citrobacter rodentium (CR) was administered to incite acute self-limiting colitis in mice prior to colonization with Bacteroides ovatus (BO). […] FIG. 20 provides a schematic illustrating the study design and timelines.
(§2) As in the study described in Example 3, there were gross histopathological differences in the distal colon tissue obtained from mice in the different treatment groups. Histological scoring of inflammation was performed by a board-certified pathologist blinded to treatment. […] Following CR infection, with no treatment, neutrophil infiltration was evident and the histological score was 10. […] Evidence of enhanced amelioration of protein markers of inflammation were also observed. […] IL-12p70 is a pro-inflammatory cytokine involved in cell-mediated immunity. For example, it is known as a T cell-stimulating factor, which can stimulate the growth and function of T cells. Moreover, it stimulates the production of interferon-gamma (IFN-γ) and tumor necrosis factor-alpha (TNF-α) from T cells and natural killer (NK) cells, and reduces IL-4 mediated suppression of IFN-γ.

[3] = test system: IL-1β, IL-6, IL-22, TNF-α; experiment: Tissue cytokine detection by ELISA in cecal and colonic homogenates (Example 3); type: in vivo, mice; settings: for decreasing pro-inflammatory cytokines (IL-1β and TNF-α) and increasing IL-22 in intestinal tissues: compared with uncaged drugs
Experimental: Cecal and colonic homogenate for each mouse was prepared using the tissues suspended in an immunoprecipitation buffer at a ratio of 1:5 (wt/vol, adapted from Burgos-Ramos E. et al. 2012. “Adipose tissue promotes a serum cytokine profile related to lower insulin sensitivity after chronic central leptin infusion”. PLoS One Vol 7(10): e46893) with the addition of 1% Protease Inhibitor Cocktail (Sigma Aldrich). Frozen tissue sections were immediately homogenized using a Tissue-Tearor® model 398 homogenizer (Biospec Products) and centrifuged (14 000×g for 30 min at 4° C.). Supernatants were collected and used immediately for cytokine profiling. Cecal and colonic cytokine concentrations were measured for each treatment group by enzyme-linked immunosorbent assay (ELISA). Cytokines included in the analysis were interleukin-1 beta (IL-1β); IL-6; IL-10; IL-22; and tumour necrosis factor alpha (TNF-α). All cytokines were quantified using mouse DuoSet ELISA Development kits according to the manufacturer's protocols (R&D Systems). ELISAs were performed using 96-well high-binding half area microplates (Greiner Bio-One), and the optical density of the reactions were determined at wavelength of 450 nm on a Synergy HT™ multi-detection microplate reader (BioTek Instruments Inc.) with Gen5™ analysis software (BioTek Instruments Inc.).

[4] = test system: interleukin-12p70 (IL-12p70); experiment: Protein markers of inflammation in colonic tissue (Example 7); type: in vivo; settings: infected female mice; compared to uncaged PRED or DEXA
Experimental: as §1, §2

[5] = test system: acute self-limiting colitis in mice; experiment: Gross visual observations of the murine abdomen (Example 3); type: in vivo; settings: necropsy after 3 days of steroid gavage
Excerpt: Under isoflurane anesthesia, mice were terminally bled by cardiac puncture and then humanely euthanized by cervical dislocation. All collected blood was separated into serum that was dedicated for steroid detection and optimization of steroid detection procedures. Following euthanasia, a midline laparotomy was made and gross observations of the abdominal regions were photo-documented. Approximately 1 cm sections of the cecum, and the most proximal and distal portions of the colon were divided for histological examination. Cecal and colonic tissues were flash frozen in liquid nitrogen for future immunological protein quantification. Digesta extracted from the colon was stored at −80° C. for future steroid detection, and fresh feces from the cages were used to enumerate Bacteroides ovatus and Citrobacter rodentium by microbiological techniques on the same day as the necropsy.

[6] = test system: acute self-limiting colitis in mice; experiment: Histological scoring of inflammation, C. rodentium colitis in germ-free mice colonized with B. ovatus (Example 3); type: in vivo; settings: for Crypt Height / Epithelia Hyperplasia / Epithelial Injury / Fibrosis / Globlet cell / Inflamm / Mitotic Act.: gavage 3 days, prednisolone forms 1 mg/kg/day, dexamethasone forms 0.6 mg/kg/day; for Crypt Height / Epithelia Hyperplasia / Epithelial Injury / Fibrosis / Globlet cell / Inflamm / Mitotic Act. / Total Score: n=2; for Total Score: sum of each scoring category; for acute inflammation in the proximal and distal colon, histopathologically / efficacy compared with the uncaged drug: gnotobiotic mice colonized by B. ovatus; for efficacy compared with the uncaged drug: Example 3 conclusions
[7] = cecal tissue homogenates, compared to the free steroids, n=2

Sequence of Bacteroides ovatus GH5 endo-xyloglucanase (A7LXT7 33-502): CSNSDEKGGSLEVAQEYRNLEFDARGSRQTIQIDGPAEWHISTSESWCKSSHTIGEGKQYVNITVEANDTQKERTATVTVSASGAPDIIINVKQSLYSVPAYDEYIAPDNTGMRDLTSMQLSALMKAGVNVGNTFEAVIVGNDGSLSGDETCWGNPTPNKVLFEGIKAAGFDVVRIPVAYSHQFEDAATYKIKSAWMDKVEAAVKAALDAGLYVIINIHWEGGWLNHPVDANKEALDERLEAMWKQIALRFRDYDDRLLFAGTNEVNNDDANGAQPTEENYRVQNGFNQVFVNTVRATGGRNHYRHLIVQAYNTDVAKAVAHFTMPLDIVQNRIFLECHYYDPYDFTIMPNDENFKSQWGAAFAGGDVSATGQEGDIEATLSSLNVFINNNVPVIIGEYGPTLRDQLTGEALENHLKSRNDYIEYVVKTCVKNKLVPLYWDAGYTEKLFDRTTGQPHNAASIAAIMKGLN

SMILES	hydrolysis of the prodrug (release of the active drug) [1]	histological score, distal colon [2]	Crypt Height ([6]; cecal tissue)	Epithelia Hyperplasia ([6]; cecal tissue)	Epithelial Injury ([6]; cecal tissue)	Fibrosis ([6]; cecal tissue)	Globlet cell ([6]; cecal tissue)	Inflamm ([6]; cecal tissue)	Mitotic Act. ([6]; cecal tissue)	Total Score ([6]; cecal tissue)	Crypt Height ([6]; distal colon)	Epithelia Hyperplasia ([6]; distal colon)	Epithelial Injury ([6]; distal colon)	Fibrosis ([6]; distal colon)	Globlet cell ([6]; distal colon)	Inflamm ([6]; distal colon)	Mitotic Act. ([6]; distal colon)	Total Score ([6]; distal colon)	Crypt Height ([6]; proximal colon)	Epithelia Hyperplasia ([6]; proximal colon)	also measured
COC(=O)c1cc(N)ccc1O[C@@H]1OC(CO)[C@@H](O[C@@H]2OC(CO[C@H]3OC[C@@H](O)C(O)C3O)[C@@H](O[C@@H]3OC(CO[C@H]4OC[C@@H](O)C(O)C4O)[C@@H](O[C@@H]4OC(CO[C@H]5OC[C@@H](O)C(O)C5O)[C@@H](O)C(O)C4O)C(O)C3O)C(O)C2O)C(O)C1O (stereo partly drawn) [XXXG-5ASAME, XXXG-β-O-mesalazineME]	demonstrated																				
C[C@@H]1C[C@H]2[C@@H]3CCC4=CC(=O)C=C[C@]4(C)[C@@]3(F)[C@@H](O)C[C@]2(C)[C@@]1(O)C(=O)CO[C@@H]1OC(CO)[C@@H](O[C@@H]2OC(CO[C@H]3OC[C@@H](O)C(O)C3O)[C@@H](O[C@@H]3OC(CO[C@H]4OC[C@@H](O)C(O)C4O)[C@@H](O[C@@H]4OC(CO[C@H]5OC[C@@H](O)C(O)C5O)[C@@H](O)C(O)C4O)C(O)C3O)C(O)C2O)C(O)C1O (stereo partly drawn) [XXXG-DEXA, XXXG-β-O-dexamethasone]	demonstrated	2	1	1	1	1.5	0.5	2	1.5	8.5	1.5	1.5	1	0	0	1	1	6	2	1.5	efficacy compared with the uncaged drug, histologically [2]: greater efficacy than uncaged dexamethasone histologically; colitis in the colon, histopathologically [2]: ameliorate colitis; IL-1β concentration in cecal tissue [3, 7]: decreased; TNF-α concentration in cecal tissue [3, 7]: decreased; decrease of IL-6 concentration in cecal tissue [3, 7]: more effective than XXXG-PRED; decreasing pro-inflammatory cytokines (IL-1β and TNF-α) and increasing IL-22 in intestinal tissues [3]: more effective than the uncaged drugs; quantities of interleukin-12p70 (IL-12p70) protein in colonic tissue [4]: significantly lower; cecal and colonic thickening (gross observation) [5]: less cecal and colonic thickening than uncaged dexamethasone; amelioration of colitis in the cecum and proximal colon, caged drugs compared ([6]; colitis incited by Citrobacter rodentium): more effective than XXXG-PRED; caged drugs compared in the distal colon ([6]; distal colon): equal scores; acute inflammation in the proximal and distal colon, histopathologically [6]: ameliorate acute inflammation; efficacy compared with the uncaged drug [6]: greater efficacy than uncaged dexamethasone; injury and inflammation intensities, distal colon ([6]; histologic examination): lessened the injury and inflammation intensities; injury and inflammation intensity, ceca and proximal colon tissues ([6]; histologic examination): less injury and inflammation intensity than the other treatments; Epithelial Injury ([6]; proximal colon): 2; Fibrosis ([6]; proximal colon): 0; Globlet cell ([6]; proximal colon): 0; Inflamm ([6]; proximal colon): 1; Mitotic Act. ([6]; proximal colon): 1.5; Total Score ([6]; proximal colon): 8
C[C@@H]1C[C@H]2[C@@H]3CCC4=CC(=O)C=C[C@]4(C)[C@@]3(F)[C@@H](O)C[C@]2(C)[C@@]1(O)C(=O)CO [dexamethasone, reference compound]		17	1	1	0.5	0	0	2	1.5	6	2	1.5	1	1	1.5	1.5	1	9.5	3	3	Epithelial Injury ([6]; proximal colon): 2; Fibrosis ([6]; proximal colon): 0; Globlet cell ([6]; proximal colon): 0; Inflamm ([6]; proximal colon): 1.5; Mitotic Act. ([6]; proximal colon): 1.5; Total Score ([6]; proximal colon): 11
C[C@]12C=CC(=O)C=C1CC[C@@H]1[C@@H]2[C@@H](O)C[C@@]2(C)[C@H]1CC[C@]2(O)C(=O)CO[C@@H]1OC(CO)[C@@H](O[C@@H]2OC(CO[C@H]3OC[C@@H](O)C(O)C3O)[C@@H](O[C@@H]3OC(CO[C@H]4OC[C@@H](O)C(O)C4O)[C@@H](O[C@@H]4OC(CO[C@H]5OC[C@@H](O)C(O)C5O)[C@@H](O)C(O)C4O)C(O)C3O)C(O)C2O)C(O)C1O (stereo partly drawn) [XXXG-PRED, XXXG-β-O-prednisolone]	demonstrated	4	2	2	1.5	0.5	0	2.5	1.5	10	1.5	1.5	1	0	0.5	1	1	6.5	2	3	efficacy compared with the uncaged drug, histologically [2]: greater efficacy than uncaged prednisolone histologically; colitis in the colon, histopathologically [2]: ameliorate colitis; IL-1β concentration in cecal tissue [3, 7]: decreased; TNF-α concentration in cecal tissue [3, 7]: decreased; IL-22 concentration in cecal tissue ([3]; cecal tissue homogenates, n=2): increased; decreasing pro-inflammatory cytokines (IL-1β and TNF-α) and increasing IL-22 in intestinal tissues [3]: more effective than the uncaged drugs; quantities of interleukin-12p70 (IL-12p70) protein in colonic tissue [4]: significantly lower; blood present in ceca (gross observation) [5]: more blood present in ceca than dexamethasone treatment; also recorded: more blood in cecal area; caged drugs compared in the distal colon ([6]; distal colon): equal scores; acute inflammation in the proximal and distal colon, histopathologically [6]: ameliorate acute inflammation; efficacy compared with the uncaged drug [6]: greater efficacy than uncaged prednisolone; injury and inflammation intensities, distal colon ([6]; histologic examination): lessened the injury and inflammation intensities; Epithelial Injury ([6]; proximal colon): 2.5; Fibrosis ([6]; proximal colon): 0; Globlet cell ([6]; proximal colon): 0.5; Inflamm ([6]; proximal colon): 2; Mitotic Act. ([6]; proximal colon): 1.5; Total Score ([6]; proximal colon): 11.5

— patent US20220184220A1, “XYLOGLUCAN-CONTAINING PRODRUGS AND METHODS OF MANUFACTURE AND USE THEREOF” (priority 2019, published 2022)
